# Legend:
# [1] = system: M109; experiment: In vivo antitumor activity evaluated against M-109 murine lung carcinoma cells in BALB/c mice administered intraperitoneally at a dose of 10 mg/kg; format: functional, Mus musculus; settings: route intraperitoneal
# [2] = Compound was evaluated for plasma clearance.; format: ADME, organism-based, Canis lupus familiaris; settings: dog
# [3] = species: Canis familiaris; experiment: Compound was evaluated for area under the curve in dog blood.; format: ADME, organism-based, Canis lupus familiaris; settings: in vivo
# [4] = system: M109; experiment: In vivo antitumor activity evaluated against M-109 murine lung carcinoma cells in BALB/c mice administered intraperitoneally at a dose of 4.5 mg/kg; format: functional, Mus musculus; settings: route intraperitoneal
SMILES,Tumor volume reduction [1] [%],clearance [2] [mL/min/kg],AUC [3] [mg/min/L],Tumor volume reduction [4] [%]
N/C(S)=N/N=C/c1ncccc1NC(=O)OCc1ccc(OP(=O)([O-])[O-])cc1.[Na+].[Na+],46,43.8,74.04,
NC(=S)N/N=C/c1ncccc1N [TRIAPINE],,40.6,71.59,30

# From ChEMBL document CHEMBL1130665, “Synthesis and biological evaluation of a water soluble phosphate prodrug of 3-aminopyridine-2-carboxaldehyde thiosemicarbazone (3-AP)” (Bioorg Med Chem Lett, 1998)
